The source of these data is US8771682B2, “Methods and compositions for reducing interleukin-4 or interleukin-13 signaling” (Technische Universtität Dresden, priority 2011, dated 2014).

What all share (assay type): cell-based, human
The subject of assay [1] is endogenous type I signaling (IL-4R, Stat6 phosphorylation) in Jurkat T lymphocytic leukemia cell line. Put plainly: pStat6 levels, endogenous type I IL-4 signaling in Jurkat cells. The settings on record: 10 min pre-incubation with inhibitor plus 30 min ligand and inhibitor, chlorpromazine 2.8 μmol/l. As to the method:
In a second series of experiments the inventors assayed the type I IL-4R. The pStat6 levels were determined under the following conditions: • without ligand stimulation • incubation with IL-4 ligand for 30 min • 10 min pre-incubation with inhibitor plus 30 min incubation with ligand and inhibitor • 40 min pre-incubation with inhibitor followed by removal of the inhibitor and 30 min incubation with ligand (washout).
To assay endogenous type I signaling was analyzed in the Jurkat T lymphocytic leukemia cell line (ATCC TIB 152) showing a specific sensitivity to Rac/Pak dependent endocytosis.

For assay [2], the system named is type II IL-4 signaling (IL-4/IL-13, Stat6 phosphorylation). Put plainly: Stat6 phosphorylation by quantitative immunoblotting in Stat6-transfected HEK293T cells stimulated with IL-4 or IL-13 (type II signaling). The settings on record: IL-4 3 ng/ml or IL-13 10 ng/ml, Dynasore 320 μmol/l, EHT-1864 50 μmol/l, IPA-3 10 μmol/l, FIG. 9. The source says:
It was verified by RT-PCR that HEK293T (human epithelial cell line—ATCC number CRL-11268) cells expressed the endogenous type II IL-4 pathway components IL4-Ra, IL-13Ra1, Jak1, while Stat6 and the type I specific components IL-2Rg, and Jak3 were absent (FIG. 4 and FIG. 5). In HEK cells ectopically expressing human Stat6 under the cytomegalovirus promoter (pcDNA3.1-GS-Stat6, Gene Storm, Invitrogen) and stimulated with either IL-4 or IL-13, phosphorylated Stat6 became detectable by immunoblotting (FIG. 6). Co-transfected RNAi (Sigma Aldrich, #EHU-029151) mediated knockdown of the endogenous IL-13Ra1 subunit verified that this signaling activity was mediated by the type II receptor pathway (FIG. 7). Ectopically Stat6 is functional.
To test whether IL-4 signaling depends on compounds inhibiting Rac/Pak dependent endocytosis, HEK293T cells were transfected with a plasmid encoding human Stat6. Following transfection, cells were grown overnight, treated with inhibitors and/or ligands, lysed, proteins separated electrophoretically under denaturing conditions, and phosphorylation of Stat6 detected by quantitative immunoblotting (Antibodies from Santa Cruz, anti-STAT6 (M-20) #sc-981 and anti-phospho-STAT6 (py641.18, #sc-136019; FIG. 9).
If not indicated otherwise, human recombinant IL-4 (Invitrogen, #PHC0045) was used at 3 ng/ml, and human recombinant IL-13 (Cell Signaling, #8905) was used at 10 ng/ml.
If not indicated otherwise, the dynamin inhibitor Dynasore (Sigma Aldrich, #D7693) was used at 320 μmol/l, the Rac1 inhibitor EHT-1864 (Sigma Aldrich, 41E-1657) at 50 μmol/l, and the PAK inhibitor IPA-3 (Sigma Aldrich, #I-2285) at 10 μmol/l.

In assay [3] the test system is loading of the signaling endosome with IL4-A647 in HEK293T transfected with IL-4Ra, IL-2Rg-eGFP and JAK3. The assay is described as follows: Translocation of labeled IL-4 (IL4-A647) into signaling endosomes, co-localization with IL-2Rg-eGFP. As to the method: The inventors created a fluorescently labeled IL-4 ligand (Alexa647—succinimidylester, Invitrogen)—further referred to as IL4-A647.
HEK293T were transfected with IL-4Ra, IL-2Rg-eGFP, and JAK3 as described above and cultured under standard culture conditions. The cells were incubated at 4° C. with the inhibitor (optional) and stained with 50 nmol/I IL4-A647 and washed with medium (DMEM without phenole red). The temperature release from 0° C. to 20° C. was defined as a reference point for the onset of endocytosis. Thenceforth, co-localization of eGFP with A647 was measured.
Applying the fluorescent IL-4-A647 under conditions in which endocytosis is suppressed (4° C.) allows to observe the kinetics of the translocation into the signaling endosomes. The endocytosis starts with a temperature release. FIG. 15 illustrates that in an initial state (timepoint 0 min, IL4-A647 channel) the plasma membrane of the IL-4Ra chain expressing cells is homogeneously stained. However, after several minutes, the A647 fluorescence a punctuated pattern appears in the IL4-A647 channel showing a high degree of colocalization to the GFP channel (FIG. 16). Association of the stained endosomes with the actin cortex and the plasma membrane is apparent in central confocal cross-sections through a central part of the cell (FIG. 17). […] Such a readout could therefore be used to detect IL-4 translocation inhibitors.

Assay [4] concerns transferrin uptake in HEK cells expressing endogenous transferrin receptor. Put plainly: Uptake of fluorescent transferrin (Alexa568-transferrin) by confocal fluorescence microscopy. The settings on record: 25 μg/ml Alexa568-transferrin, compounds at working concentration (Dynasore 320 μmol/l), FIG. 14. The protocol: The inventors verified that the used compounds at the working concentration indeed blocked endocytosis by monitoring the uptake of 25 μg/ml fluorescent transferrin (Alexa568-transferrin, Invitrogen) with confocal fluorescence microscopy (FIG. 14). The experiment was performed with (untransformed) HEK-cells expressing endogenous transferrin receptor. As expected, dynamin dependent endocytosis could be blocked with Dynasore. […] As expected, inhibiting Rac1 and Pak 1/2 dependent actin polymerization by EHT-1864 and IPA-3 had no effect on transferrin uptake (FIG. 14).

“Also recorded” adds a separate entry of the source.

`O=c1cc(CN2CCOCC2)occ1OCCCCCSc1ccnc2cc(C(F)(F)F)ccc12` (racemic) [EHT-1864, 5-(5-(7-(Trifluoromethyl)quinolin-4-ylthio)pentyloxy)-2-(morpholinomethyl)-4H-pyran-4-one]: the “IL-4 signaling (pStat6 level)” value in assay [1] is “significantly reduced”. Besides, in assay [2], the Stat6 phosphorylation level entry is reported as “reduced the Stat6 phosphorylation level”. The “transport of the Alexa647-labeled ligand” value in assay [3] (50 μmol/l EHT-1864, bottom membrane, 21 min after temperature release, FIG. 18) was “reduced”. The “uptake of the labeled ligand” value in assay [3] (50 μmol/l EHT-1864, central cross-section, 22 min after temperature release, FIG. 19) was “reduced uptake”. Moreover, the “loading of the signaling endosome with IL4-A647” value in assay [3] (pre-incubation with 50 μmol/l EHT-1864, for up to 20 minutes after temperature release, FIG. 18) is recorded as “reduced significantly”. Further, the transferrin uptake entry in assay [4] is “no effect”.

With `O=C(N/N=C/c1ccc(O)c(O)c1)c1cc2ccccc2cc1O` [Dynasore], the “IL-4 signaling (pStat6 level)” value in assay [1] was “significantly reduced”. Moreover, the Stat6 phosphorylation level entry in assay [2] is on record as “reduced the Stat6 phosphorylation level; also recorded: prevented Stat6 phosphorylation”. Further, the transferrin uptake entry in assay [4] was “blocked transferrin endocytosis; also recorded: inhibit transferrin uptake”.

On to `Oc1ccc2ccccc2c1SSc1c(O)ccc2ccccc12` [IPA-3, 1,1′-Dithiodi-2-naphthtol], for which the “IL-4 signaling (pStat6 level)” value in assay [1] is “significantly reduced”. Moreover, in assay [2], the Stat6 phosphorylation level result was “reduced the Stat6 phosphorylation level”. In assay [4], the transferrin uptake result is “no effect”.

Turning to `CN(C)CCCN1c2ccccc2Sc2ccc(Cl)cc21` [chlorpromazine], the “IL-4 signaling (pStat6 level)” value in assay [1] is “no effect; also recorded: not IL-4 signaling”; in assay [1] (listed as Chlorpromazine), “no inhibitory effect”. Moreover, the transferrin uptake entry in assay [4] was “blocked transferrin uptake”; in assay [4] (listed as Chlorpromazine), “inhibit transferrin uptake”.
